Data on one molecule can be found in PMC7369637, “Inhibition of Resistance-Refractory P. falciparum Kinase PKG Delivers Prophylactic, Blood Stage, and Transmission-Blocking Antiplasmodial Activity” (Cell Chemical Biology, 2020).

The test system of one assay is sel. Dd2-B2 TKL3T1268R. Briefly: 72-h ABS assay, MMV030084-selected line. In kind it is cell-based, Plasmodium falciparum. Conditions: Plasmodium falciparum. Here is the method:
(§1) Synchronicity was achieved using three rounds of sorbitol treatment on early rings, spaced 48 h apart, followed by magnetic purification of segmented schizonts following the final sorbitol treatment. Parasites were highly synchronous to within a 3 h window of development. Assays were repeated on at least three independent occasions (each with technical duplicates) and statistical significance was assessed using Mann Whitney U tests.
(§2) The resulting MMV030084-resistant parasites were cloned by limiting dilution ([Baker et al., 2017]) to obtain genetically homogenous cultures for further phenotyping and whole-genome sequencing. A second round of […]. […] Drug susceptibility of resistant lines was assessed using a 72 h ABS assay as described above, and a Mann Whitney U test was applied to assess statistically significant differences.

A further assay concerns Pf NF54 male gametes. Briefly: Dual gamete formation assay, male gamete exflagellation. Format: cell-based. Conditions: Plasmodium falciparum. Here is the method: Pf NF54 gametocytes were generated as reported elsewhere ([Delves et al., 2016]). Briefly, static cultures of unsynchronized asexual parasites were continuously maintained as above. Parasites were cultured at 1% ring-stage parasitemias and 4% (v/v) hematocrit prior to the induction of gametocytes. To prepare gametocytes, 75% of the media was replaced daily for 14 subsequent days without adding fresh RBCs. During this process the temperature was kept strictly constant, as the rate of exflagellation is highly temperature-dependent. Between days 1 and 4 after culture induction, the asexual parasitemias increased rapidly to a peak. By day 7, as the asexual population waned, early-stage gametocytes became observable. By day 8, gametocyte maturation had progressed, and by day 14 morphologically distinguishable, mature stage V male and female gametocytes were present. […] Control reactions contained DMSO or 20 μM methylene blue (as negative and positive controls, respectively). […] After imaging, the plate was incubated at 18°C for a further 24 h to allow female gametes to maximally express Pfs25, followed by fluorescence microscopy imaging using a 10× objective. Both time lapse images of exflagellation and fluorescence images of female gametes were automatically quantified using custom scripts in ICY BioImage Analysis ([Delves et al., 2016]).

A further assay has as its system ed. Dd2-B2 TKL3KO. Briefly: 72-h ABS assay, TKL3 knockout line. In kind it is cell-based. Conditions: Plasmodium falciparum, parent Dd2-B2 wild-type. On the procedure: as §1, §2
A CRISPR/Cas9 targeted gene editing strategy using an all-in-one plasmid approach was applied to introduce T1268R, I1250M and T1268R+I1250M in wild-type Dd2-B2 parasites or to produce a TKL3 KO line by inserting a stop codon and frameshift at amino acid position 1268. […] WR99210 (2.5 nM) was added to the culture medium 24 h after electroporation to select for successfully transfected parasites and was maintained in the medium until edited parasites were detected. […]

Another assay relates to URP cKD line. Briefly: Compound susceptibility assay using cKD lines (72 h, Renilla luciferase). In kind it is cell-based, Plasmodium falciparum. To be noted: Plasmodium falciparum. An excerpt:
To study the interaction between the compounds and PKG (PF3D7_1436600), AAT (PF3D7_1231400), CDPK1 (PF3D7_0217500), TKL3 (PF3D7_1349300), PP1 (PF3D7_1414400), and URP (PF3D7_0808300), cKD lines were generated by fusing the transcripts with RNA aptamers for translation regulation with the TetR/DOZI system ([Ganesan et al., 2016]). The right homology regions (RHR) of each target gene were amplified by PCR, using the primers listed in Table S1 (A), and along with the left homology regions (LHR) were fused to the re-codonized 3'-end region of the gene. Single guide RNA fragments were synthesized using the BioXP™ 3200 System (SGI-DNA; Table S1 (A)) and were cloned into the pSN054 vector ([Nasamu et al., 2019]) to install the C-terminal epitope tags V5 and 2x-hemagglutinin (HA) followed by a 10x RNA aptamer array and the TetR-DOZI expression cassette. This cassette also contained Blasticidin S-deaminase for selection in the parasites and the reporter gene Renilla luciferase (RLuc). The 3'-end of each target was re-codonized to avoid further modifications of the edited locus in the parasite via removal of the PAM site. Donor vector generation was carried out via Gibson assembly, and the final construct sequence was confirmed by restriction digests and Sanger sequencing.
Transfection into parasites was carried out by preloading erythrocytes with linearized vectors as described previously ([Deitsch et al., 2001]). Briefly, 50 μg of purified plasmid DNA was mixed with human RBC and subjected to 8 square wave electroporation pulses of 365 V for 1 ms each, separated by 0.1 s in a 0.2 cm cuvette. The plasmid DNA preloaded cells were inoculated with NF54 parasites expressing Cas9 and T7 RNA polymerase, maintained in 500 nM anhydrotetracycline (aTc, Sigma-Aldrich 37919), and drug selection with 2.5 μg/mL of Blasticidin (RPI Corp B12150-0.1) was initiated four days after transfection. Emergence of transfectants was monitored via Giemsa smears and RLuc measurements.
Synchronized ring-stage cKD parasites in varying aTc concentrations (high = 50 nM, intermediate = 1.5 nM, low = 1 nM, and no aTc) were distributed into the drug plate. No-drug treatment and treatment with a lethal dose of chloroquine (200 nM) served as reference controls.

Where two headings read alike, the source gives them in different places. Some results are limits rather than exact numbers.

Turning to `CC(C)(CN)c1nc(-c2ccc(Cl)c(O)c2)c(-c2ccncc2)[nH]1` [MMV030084], the IC50 with sel. Dd2-B2 TKL3T1268R is 355 nM; in the assay with Pf NF54 male gametes (carry-over: gametogenesis induced in the presence of compound, read-out: IC50, male gamete exflagellation) it was 141 nM; in the assay with Pf NF54 male gametes (compound washed out before gamete formation, read-out: IC50, male gamete formation, wash-out) it was greater than 10000 nM; with ed. Dd2-B2 TKL3KO, 376 nM; in the assay with URP cKD line (Control, [aTc] used 50.0), 35.9 nM; in the assay on URP cKD line (KD, [aTc] used 0.0) it was 42.4 nM.
